Laboratory results published in publication PMC8478151 (European journal of pharmacology, 2021).
Structures can show the parent of a compound that is named as a salt.

Target: α7 nicotinic acetylcholine receptor (Homo sapiens, UniProt P36544)
Format: cell-based

Chain of α7 nicotinic acetylcholine receptor (P36544 23-502): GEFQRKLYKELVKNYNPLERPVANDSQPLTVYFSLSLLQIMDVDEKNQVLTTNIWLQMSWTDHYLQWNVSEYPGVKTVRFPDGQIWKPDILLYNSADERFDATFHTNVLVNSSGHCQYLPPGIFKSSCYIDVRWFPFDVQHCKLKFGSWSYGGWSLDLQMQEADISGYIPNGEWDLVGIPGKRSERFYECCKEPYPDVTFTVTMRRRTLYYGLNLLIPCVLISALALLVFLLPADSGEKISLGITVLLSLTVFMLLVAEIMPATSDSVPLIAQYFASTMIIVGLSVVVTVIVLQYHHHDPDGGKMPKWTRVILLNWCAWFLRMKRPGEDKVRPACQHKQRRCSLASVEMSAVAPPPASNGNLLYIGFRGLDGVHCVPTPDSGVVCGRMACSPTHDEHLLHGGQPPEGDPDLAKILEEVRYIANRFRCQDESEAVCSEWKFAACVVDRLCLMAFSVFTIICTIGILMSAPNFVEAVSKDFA

For `O=C(c1ccc(-c2cccc(C(F)(F)F)c2)o1)N1CCN2CCC1CC2` [NS6740, 1,4-diazabicyclo[3.2.2]nonan-4-yl(5-(3-(trifluoromethyl)-phenyl)-furan-2-yl)methanone hydrochloride], which EC50 is on record?
Its EC50 is 420 nM.
